Each structure is given as a SMILES string.

`O=C(CC(C(=O)O)c1ccccc1)Nc1cc(Cc2n[nH]c(=O)c3ccccc23)ccc1F` (stereo unspecified) returned a melting point of 180 to 183 °C. For `Cc1nc2cc3c(cc2c(=O)[nH]1)C(N(C)c1ccc(C(=O)NC(CCC(=O)NC(C(=O)O)c2ccc(CC(=O)O)cc2)C(=O)O)c(F)c1)CC3` (stereo unspecified) the value was 175 to 177 °C; for `CCOC(=O)CCn1cnc2c1N=CNC2N` (stereo unspecified), 166 to 167 °C. In turn, `CCCNC(=O)C(CC)Cc1ccc2c(c1)c(Cc1ccc(C(=O)O)cc1OC)cn2CCC` (stereo unspecified) gave a melting point of 85 to 97 °C. As for `CCOc1ccc(-c2csc(-c3cccc(C(=O)OC)c3)n2)cc1`, the figure is 192 to 193 °C. The compound `O=C(c1ccc(Cl)cc1)C1(n2cncn2)CC1` showed a melting point of 78 °C. `CCOC(=O)c1ccc(N2CCC(NCC(O)COc3cccc4[nH]c(=O)[nH]c34)CC2)nc1` (stereo unspecified) gave a melting point of 191 to 193 °C.

`O=CC1CC1(c1cccc(F)c1)c1cccc(F)c1` (stereo unspecified): the melting point was 49 to 51 °C. As for `O=C(CCl)N(c1ccccc1)c1cccc(Cl)c1`, the figure is 94 to 96.5 °C; as for `Nc1nc2ccccc2c2c1ncn2CCCCCC(=O)N1CCOCC1`, 166 to 168 °C. As for `CCCCC(=O)c1ccc(OCCCC(=O)O)c(Cl)c1Cl`, the figure is 92 to 94 °C; as for `O=C(NN1CCCCC1)C1=NN(c2ccc(Cl)cc2Cl)C(c2ccccc2)C1` (stereo unspecified), 160 to 164 °C; as for `CN1C[C@H](CN2CCN(C(c3ccccc3)c3ccccc3)CC2)C[C@@H]2c3cccc4[nH]cc(c34)C[C@H]21`, 230 to 233 °C. As for `CS(=O)(=O)Nc1cc([C@@H](O)CNC2CCN(c3ccc(/C=C/C(=O)O)cc3)CC2)ccc1O`, the figure is 220 °C; as for `CN1C(=O)N(c2ccccc2Br)Cc2cnc(Nc3ccc4c(c3)OCC(CO)O4)nc21` (stereo unspecified), 156 to 158 °C; as for `OCC1OC(n2cnc3c(NNC4COc5ccccc5C4)ncnc32)C(O)C1O` (stereo unspecified), 109 to 112 °C. Take `COc1ccc(F)cc1OCCNCCCc1c[nH]c2ccc(F)cc12`: the melting point is 119 to 122 °C. `O=C(/C=C/c1ccc(O)cc1Cl)CC(=O)/C=C/c1ccc(O)cc1Cl` registered a melting point of 248 to 254 °C. For `CCOC(=O)C1=C(C)NC(C=NN)=C(C(=O)OCC)C1c1ccccc1Cl` (stereo unspecified) the value was 107 to 110 °C; for `O=C(Nc1ccc(C(F)(F)F)cc1)NC1CCN(S(=O)(=O)c2ccc(C(=O)O)cc2)CC1`, 188 to 192 °C; for `O=C1Nc2ccccc2CCC1N1C(=O)c2ccccc2C1=O` (stereo unspecified), 261 to 263 °C. As for `COc1cc(C(=O)OC(C)C)cc(OC)c1Cc1cnc(N)nc1N`, the figure is 209 to 213 °C; as for `CCCS(=O)c1cc(OCCOc2ccccc2)ccc1C` (stereo unspecified), 115 to 116 °C; as for `CCCNC(=O)C(C)Cc1ccc2c(c1)c(Cc1ccc(C(=O)NS(=O)(=O)c3ccccc3C)cc1OC)cn2C(C)C` (stereo unspecified), 182 to 184 °C. As for `N#CN=C(Nc1cccnc1)NC(NC(=O)c1ccc(I)cc1)C(Cl)(Cl)Cl` (stereo unspecified), the figure is 208 to 210 °C; as for `CCOC(=O)C1=Cc2cc(Cl)ccc2OC1C(F)(F)F` (stereo unspecified), 62 to 64 °C. As to `Cc1ccc(C(=O)Nc2nc(-c3ccccc3)c(-c3nc4ccccc4c(=O)n3-c3ccccc3C)s2)cc1`, the melting point was > 275 °C. Consider `CCC(Oc1cccc([N+](=O)[O-])c1Cl)C1=NCCN1` (stereo unspecified), for which the melting point lay within 100 to 103 °C. For `CSc1cccc(-c2coc3ccc(-c4nnc(C)o4)cc23)c1` the value was 99 to 100 °C; for `COC(=O)C(Cl)Cc1ccc2c(c1)NC(=O)C(Cc1ccccc1)O2` (stereo unspecified), 124 to 127 °C; for `CN1CCCc2ccc(NC(=O)/C=C/c3ccc(C(C)(C)C)cc3)cc21`, 200 to 202 °C. For `O=C(Nc1cccc2c(-c3ccccc3)c([N+](=O)[O-])oc12)C(F)(F)F` the value was 194 to 196 °C; for `O=C(Nc1ccc(Cl)cc1)Nc1ccc2[nH]c(C(F)(F)F)nc2c1`, 264 to 268 °C. As for `c1ccc2c(c1)cc(-c1nnn[nH]1)c1nnnn12`, the figure is 280 to 282 °C; as for `CC(=O)Nc1c(C)ccc(O)c1C`, 190 to 195 °C. In turn, `CCOC(=O)C(=O)CC(=O)c1cn(Cc2ccc(F)cc2)c2c(Cl)cccc2c1=O` came in with a melting point of 164 to 165 °C.

In turn, `COC(=O)NNC(=O)CC(C)(C)C` registered a melting point of 83 to 84.5 °C. As for `Cn1c(C2CC2)nc2cc(C(=O)NC3CC3)c(NC(=O)c3cc(C(F)(F)F)nn3-c3ncccc3Cl)c(Cl)c21`, the figure is 233 to 235 °C; as for `CCOCCOc1ncc2cc(-c3c(Cl)cccc3Cl)c(=N)n(C)c2n1`, 133 to 135 °C. For `COc1ccccc1COc1ccc(S(=O)(=O)c2ccc(C)nc2Nc2ccc(Cl)cc2C#N)cc1` the value was 178 to 180 °C; for `c1cc(Nc2nnc3c4c(cccc24)-c2ccccc2-3)cc(-n2ccnc2)c1`, 223 to 226 °C.

For `Cc1cccc(NC(=O)NCC(=O)N(CC(=O)N(C)c2ccccc2)c2ccccc2)c1`, the melting point was found to be 168 °C. `CCCCCCCCCCCCCCCCCCOc1cc(N)cc(C(N)=O)c1` registered a melting point of 139 to 143 °C. For `CCN(C(=O)Cn1c(=O)n(C)c2nc(-c3ccccc3)nc(OC)c21)c1ccccc1` the value was 173 to 175 °C. As for `COc1ccc(-c2ccccc2)cc1OC1CCCC1`, the figure is 62 to 64 °C; as for `CCNCC1CCN(c2nc3c(cc2F)c(=O)c(C(=O)O)cn3C2CC2)C1` (stereo unspecified), 268 to 270 °C; as for `COc1ccc2nc3c(c(-c4ccc(C(F)(F)F)cc4)c2c1)CNC3=O`, 305 °C. On to `CCOCCn1c(N(Cc2ccccc2)C2CCN(C(=O)OCC)CC2)nc2cccnc21`, for which the melting point worked out at 115 °C. As for `Cc1nn(C)c2nc(N(CC3CCC3)CC3CC3)c(CN(Cc3cc(C(F)(F)F)cc(C(F)(F)F)c3)c3nnn(C)n3)cc12`, the figure is 84 to 85 °C; as for `COc1cc(OC)c2c(=O)[nH]c(-c3cccc(N4CCN(C(C)C)CC4)c3)nc2c1`, 251 to 253 °C; as for `COCc1nc2c(N)nc3cc(CCC(=O)N4CCOCC4)ccc3c2n1CC(C)(C)O`, 215 to 217 °C. For `CC1(C)O[C@H]2[C@H](OCc3ccccc3)O[C@H](C(N)=O)[C@H]2O1` the value was 78 °C. For `OCc1c(CO)c(-c2ccncc2)n2c1CCC2` the value was 173 to 175 °C. `CC(=O)OCC1CN(C(=O)OC(C)(C)C)c2cc(OCc3ccccc3)c3ncccc3c21` (stereo unspecified) yielded a melting point of 172 to 173 °C. For `COc1ccc2c(c1)C(=NN1CCOC1=O)CCO2` the value was 54 to 64 °C; for `CCOC(=O)C1=C(N)NC(N)=C(C(=O)OCC)C1c1ccccc1OC`, 147 °C. The compound `Cn1ncc(/C=C/C(=O)Nc2ccc(OCc3nnco3)cc2)c1-c1ccc(F)cc1` returned a melting point of 154 to 155 °C. For `CCC(=O)Oc1ccc(C(=O)c2ccc(Sc3ccccc3)cc2)c(O)c1` the value was 88 to 90 °C; for `CCOC(=O)N1CCN(c2nn(-c3ccc(C(F)(F)F)cc3)c3ccccc23)CC1`, 123 to 126 °C.

Consider `Cc1cccc(Nc2ncnc3ccc(CSc4nccn4C)cc23)c1`, for which the melting point fell in the range of 137 to 139 °C. Turning to `OCc1cc(NCCCCCCBr)ccc1O`, the melting point lay in the range of 132 to 134 °C. For `O=C(CCCN1CC=C(c2ccccc2)CC1)c1cccnc1` the value was 64 to 66 °C. For `CCc1ccc(Nc2nc3cc(NC(=O)c4ccc(Cl)c(Cl)c4)ccc3o2)cc1` the value was > 250 °C. For `CC(C(=O)O)c1ccc(Oc2ccccc2F)cc1` (stereo unspecified) the value was 106 to 108 °C. In turn, `CCOC(=O)N1CCN(c2nc(C)nc3c2OCC(=O)N3)CC1` had a melting point of 197 to 198 °C. For `COc1ccc(N2CCN(c3ccccn3)CC2)cc1` the value was 126 °C; for `CNNC(=O)c1ccc(Cl)cc1`, 130 to 131 °C.

With `OC(Cc1ccc(Cl)cc1Cl)(Cn1ccnc1)c1ccc(C2CCCCC2)cc1` (stereo unspecified), the melting point is 142 °C. Turning to `CC(C)c1nc2c([nH]1)c(=O)[nH]c(=O)n2Cc1ccncc1`, the melting point lay in the range of 305 to 307 °C.

The compound `OC(COc1cccc2ccccc12)CN1CCCC1` (stereo unspecified) had a melting point of 68 to 70 °C. As for `ClCc1cnc(SCc2ccccc2)s1`, the figure is 57 to 61 °C. For `CC(=O)OC1CSC(Oc2cc(-c3ccc(F)nc3)cnc2Cl)C(OC(C)=O)C1OC(C)=O` (stereo unspecified) the value was 70 to 90 °C; for `CCCCCCCCOc1ccc(-c2ncc(Br)cn2)cn1`, 99 to 101 °C. `COc1cc(C=O)ccc1OCCCl` had a melting point of 60 to 61 °C. As to `Nc1c(O)cc(Cl)cc1C(=O)C(F)(F)F`, the melting point lay within 120 to 122 °C. For `CCC(C)(C)C(=O)OCc1cccc(C)c1OCCOc1ccc([C@H](N)C(=O)O)cc1` the value was 170 to 172 °C. As for `CCOC(=O)c1c(C)ncn(-c2ccc(Cl)cc2)c1=O`, the figure is 98 to 100 °C; as for `Clc1ccc(-c2nc(NCc3ccccc3)c3ccccc3n2)cn1`, 212 °C; as for `O=C(OCc1c(F)c(F)nc(F)c1Cl)c1ccccc1`, 60 °C. In turn, `COc1ccc2c(c1)C(O)(CC#N)C(C)(C)CC2` (stereo unspecified) gave a melting point of 107 to 108 °C. For `O=C(c1ccc(F)cc1)C1CCN(C(=O)Cc2ccc(OCc3ccccc3)cc2OCc2ccccc2)CC1` the value was 158 to 159 °C; for `CC(CCCc1ccc(F)cc1)c1cc(NS(C)(=O)=O)c2c(c1)OC(C)(C)c1ccncc1-2` (stereo unspecified), 208 to 209 °C. As for `C[Si](C)(C)O[C@@]1(C(F)(F)F)OCN(C(=O)OCc2ccccc2)[C@H]1Cc1ccccc1`, the figure is 98 to 101 °C; as for `CCCCNC(=O)NS(=O)(=O)Cc1c(C(=O)OC)cccc1S(=O)(=O)N(C)C`, 118 to 134 °C; as for `CC1(C)OC(=O)C(Oc2ccc(Cl)cc2)=C1c1ccc(S(C)(=O)=O)cc1`, 113 to 114 °C. Regarding `CCOC(=O)CN=C1N[C@](C)(Cc2ccc(Br)cc2)C(=O)N1c1cc(Cl)cc(Cl)c1`, the melting point lay in the range of 103 to 105 °C.

By melting point is commonly meant the temperature of the solid-liquid transition.

The record behind these values is a melting point compilation (Tetko et al.; mined from patent text by program, amines drawn as free bases though some values may be those of a salt).
